Common to all, as to assay type: cell-based, Staphylococcus aureus
Test [1] relates to MRSA USA300. In words: Antibacterial activity assay (MIC by broth microdilution, MBC by subculture). The protocol: The antimicrobial activity was based on MIC and MBC; MIC is the minimum inhibitory concentration and MBC is the minimum bactericidal concentration. The MIC of individual test agents against MRSA USA300 strains was determined using the broth microdilution method according to CLSI guidelines. Briefly, overnight bacterial cultures in LB medium were diluted 1:50 in fresh LB medium and incubated at 37° C. until reaching an OD600 of 0.5 to 0.6. Bacterial suspensions were diluted to a final concentration of 5×10^5 cfu/mL in fresh CAMHB and then exposed to each test agent at increasing doses in triplicate in 96-well plates for 24 hours at 37° C. The MIC of each agent was defined as the lowest concentration without visible bacterial growth. […] The lowest broth dilution that had no viable bacteria was considered the MBC.
Then, the combination effect was measured by calculating their corresponding fractional inhibitory concentration index (FICI) with the equation ΣFIC (FICi)=FICA+FICB=(CombA/MICA)+(CombB/MICB), where MICA and MICB are the MICs of drugs A and B alone, respectively, and CombA and CombB are the concentrations of drugs A and B in combination, respectively. […] was defined as an FICI≤0.5, no interaction was defined as an FICI>0.5-4.0, and antagonism was defined as an FICI>4.

The next test has as its system S. aureus NCTC8325. In words: Antibacterial activity assay (MIC, broth microdilution). The note with it: for MIC: Staphylococcus aureus.
A further test has as its system MRSA SCCmec VT. The description is as above. The note with it: for MIC: Staphylococcus aureus, MRSA.
For a further test, the system named is VRSA SJC1200. Described as above. The note with it: for MIC: Staphylococcus aureus, VRSA.
Test [2] has as its system MRSA USA300. The experiment in a line: Time-kill kinetics (cfu assay). The note with it: SC5005 4×MIC, 1 mg/L; FIG. 1. The protocol:
(§1) The number of viable bacteria in broth after each exposure period was enumerated by a cfu assay and expressed as cfu/mL; the data shown are the mean±SD (standard deviation) of independent experiments. […] The number of viable bacteria in the broth after each exposure period was calculated by a cfu assay (cfu/mL); the data are shown as the mean±SD of three independent experiments (n=3 for each group). Since the standard deviation of each point is very small, the error line is not shown in each graph. The horizontal dashed line in the upper left graph and the upper right graph represents […] of the bacterial cells killed. In addition, the blank controls in FIG. 1 are shown as filled diamonds.
In this experiment, the inventor analyzed the time-kill kinetics of SC5005, DHA, and a combination thereof against Staphylococcus aureus NCTC8325 and MRSA USA300, and the results are shown in FIG. 1. It can be seen in FIG. 1 that SC5005 killed more than 99.9% of the bacteria within 24 hours. […] Besides, it is well known in the art that Staphylococcus aureus can enter a dormant state (i.e., become the so-called persister cells) and develop resistance to antibiotic treatment, thus leading to repeated bacterial infections.

The subject of test [3] is MRSA USA300 persister cells. The experiment in a line: Persister killing assay. The note with it: SC5005 16×MIC, 4 mg/L; FIG. 1. How it is done: as §1
(§2) Bacteria were collected by centrifugation at 4000×g for 10 min at 4° C., washed with ice-cold PBS, and suspended in PBS with test agents. Controls received DMSO and ethanol vehicles at concentrations equal to those for drug-treated bacteria. At the designated times, the number of viable bacteria was assessed by serial dilution of a 100 μL aliquot bacterial suspension in PBS and then spread onto LB agar plates. After incubation at 37° C. for 18-24 hours, the number of colonies was counted and expressed as cfu/mL.

The test system of test [4] is S. aureus NCTC8325 persister cells. The experiment in a line: Persister killing assay. The note with it: SC5005 16×MIC, 4 mg/L; FIG. 1. The protocol: as §1, §2
For a further test, the system named is biofilms of MRSA USA300. In words: Biofilm eradication assay. How it is done:
(§3) FIG. 2: The biofilms of S. aureus NCTC8325 (the upper left graph) and MRSA USA300 (the upper right graph) were treated with increasing concentrations of blank control (Mock), DHA, daptomycin (DAP), vancomycin (VAN), SC5005, and SC5005 in combination with DHA for 24 hours. The number of viable bacteria was then determined using a cfu assay. The data represent individual experiments and are shown as the mean±SD (n=3 per group). ns, nonsignificant, p>0.05; *p<0.05; **p<0.01; ***p<0.001. (The lower left graph) the biofilms of MRSA USA300 were treated with blank control (Mock) or SC5005 along with 80 mg/L DHA for 1, 3 or 10 minute(s). The viable bacteria in the biofilms harvested and enumerated using a cfu assay. The data represent independent experiments and are shown as mean±SD (n=3 per group). ns, nonsignificant, p>0.05; *p<0.05; **p<0.01; ***p<0.001 (The lower right graph) RAW264.7 cells were exposed to a blank control (Mock) or increasing concentrations of SC5005 and 80 mg/L DHA for […]. The viability of cells was determined by the MTT assay and expressed as a percentage relative to mock (DMSO and ethanol)-treated cells. The data shown are the mean±SD (n=3 per group).
(§4) The eradication activity of daptomycin, vancomycin, experimental acyl compounds and experimental acyl compounds along with fatty acids against biofilms of microorganisms was evaluated as described above. Briefly, bacteria were grown in tryptic soy broth (Becton Dickinson, USA) and biofilms were formed on the pegs of the lid of a 96-well dish immersed in bacterial cultures at 5×10^5 cfu/mL. […] After incubation at 37° C. for 24 hours, the peg-lids were washed and placed onto a new 96-well plate with fresh CAMHB in each well and sonicated for 5 minutes to disrupt the biofilm on the pegs, followed by a cfu assay to assess the number of viable bacteria in each well. To determine the minimum biofilm removal concentration, the 96-well plates were covered with new lids and incubated at 37° C. for 24 hours, and then the viable bacteria in each well were counted using the cfu assay.

The subject of test [5] is biofilms of S. aureus NCTC8325. In words: Biofilm eradication assay. The note with it: 24 hours; FIG. 2. How it is done:
as §3, §4

This is an account of results in patent publication US20260130885A1, “ANTIMICROBIAL COMPOSITIONS, PHARMACEUTICAL COMPOSITIONS AND USE THEREOF” (priority 2022, published 2026).

≈ marks a conversion by molar mass, not a printed value. Where two headings read alike, the source gives them in different places.

As for `O=C(Nc1ccc(Cl)c(C(F)(F)F)c1)C(CCCl)C(=O)Nc1ccc(Cl)c(C(F)(F)F)c1` [SC5005], the MBC was determined as 7.8 ng/mL in the test with MRSA USA300 [1] (+8 mg/L DHA); 2000 ng/mL with MRSA USA300 [1] (Staphylococcus aureus, MRSA / SC5005 / USA300, fatty acid 0 mg/L (SC5005 alone), read-out: MBC SC5005); 2000 ng/mL in the test with MRSA USA300 [1] (Staphylococcus aureus, amide compound alone, read-out: MBC). Also, the MIC with MRSA USA300 [1] (+8 mg/L DHA) is 0.0038 ng/mL; in the test with MRSA USA300 [1] (+8 mg/L DHA, MRSA USA300 (Table 4)) it was 0.015 ng/mL; in the test with MRSA USA300 [1] (Staphylococcus aureus, MRSA / SC5005 / USA300, fatty acid 0 mg/L (SC5005 alone), read-out: MIC SC5005), 250 ng/mL; in the test on MRSA USA300 [1] (Staphylococcus aureus, amide compound alone, read-out: MIC), 250 ng/mL; in the test on MRSA USA300 [1] (agent alone, MRSA USA300 (Table 4)) it was 250 ng/mL; in the test with S. aureus NCTC8325 (NCTC8325, +8 mg/L DHA), 0.0019 ng/mL (≈ 0.00364 nM). For the same compound, the MIC turned out to be 250 ng/mL (≈ 479 nM) in the test on S. aureus NCTC8325 (NCTC8325, agent alone); 0.0019 ng/mL (≈ 0.00364 nM) in the test with MRSA SCCmec VT (+8 mg/L DHA); 250 ng/mL (≈ 479 nM) with MRSA SCCmec VT (agent alone); 0.0019 ng/mL (≈ 0.00364 nM) against VRSA SJC1200 (+8 mg/L DHA); 250 ng/mL (≈ 479 nM) against VRSA SJC1200 (agent alone). Moreover, the combination effect result in the test on MRSA USA300 [1] (MIC, +8 mg/L DHA, MRSA USA300 (Table 4)) is recorded as “(Syn) (Synergy (Syn) was defined as an FICI≤0.5)”; with S. aureus NCTC8325 (MIC, +8 mg/L DHA), “(Syn) (Synergy (Syn) was defined as an FICI≤0.5)”; in the test with MRSA SCCmec VT (MIC, +8 mg/L DHA), “(Syn) (Synergy (Syn) was defined as an FICI≤0.5)”; with VRSA SJC1200 (MIC, +8 mg/L DHA), “(Syn) (Synergy (Syn) was defined as an FICI≤0.5)”. In the test with MRSA USA300 [2], the “bacteria killed within 24 hours” value is on record as “more than 99.9%”. In addition, the “time to eradication of persister cells” value in [3] and in test [4] was not above 24 h in each case. The “biofilm removing activity (in words)” value was “superior biofilm removing activity in comparison with daptomycin and vancomycin” in the test on biofilms of MRSA USA300 (24 hours, FIG. 2); “superior biofilm removing activity in comparison with daptomycin and vancomycin” in [5]. Moreover, in the test with biofilms of MRSA USA300 (DHA concentration 80 mg/L, strain not given), the “increase of the biofilm removing activity of SC5005” value is 32 times.
